Data from patent US6028053A, “Peptide inhibitors of a phosphotyrosine-binding domain containing protein” (Mount Sinai Hospital Corporation, priority 1998, dated 2000).
Like-named read-outs stand apart in the source and are kept apart here. Square brackets hold non-standard residues; d marks the D form. Ends that are not written are not given here. Peptide text beside a SMILES is read from it. pY = N[C@@H](Cc1ccc(OP(=O)(O)O)cc1)C(=O)O

How the values were obtained:
Shc PTB domain = target: T1, Shc PTB domain (Homo sapiens, UniProt P29353); experiment: Surface plasmon resonance competition of GST-Shc PTB domain binding to immobilized polyoma middle T antigen phosphopeptide
T1 construct: containing 1 μM GST-Shc PTB domain fusion protein; made in house
T1 sequence (P29353 156-339 limits assumed): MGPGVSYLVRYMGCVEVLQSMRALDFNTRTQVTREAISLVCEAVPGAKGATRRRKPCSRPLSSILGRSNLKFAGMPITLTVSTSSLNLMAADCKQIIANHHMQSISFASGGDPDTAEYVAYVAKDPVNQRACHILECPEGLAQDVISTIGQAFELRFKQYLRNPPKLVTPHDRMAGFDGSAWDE
Protocol: Surface plasmon resonance analysis was carried out using a Biacore apparatus (Pharmacia Biosensor) as described previously (Puil et al., 1994). The peptide L-S-L-L-S-N-P-T-p.Y-S-V-M-R-S-K (SEQ ID NO:23) was immobilized to a biosensor chip through injection of a 0.5 mM solution of the phosphopeptide, in 50 mM HEPES, pH 7.5 and 2 M NaCl, across the chip surface previously activated following procedures outlined by the manufacturer. Injection of anti-phosphotyrosine antibody was used to confirm that successful immobilization of the peptide was achieved. Solutions (100 μl) containing 1 μM GST-Shc PTB domain fusion protein and the indicated concentrations of soluble phosphopeptide in 50 mM Na phosphate, pH 7.5, 150 mM NaCl, 0.1 mM EDTA, and 2 mM DTT, were injected across the surface. The amount of bound GST-Shc PTB domain was estimated from the surface plasmon resonance signal at a fixed time following the end of the injection and the percentage bound, relative to injection of GST-Shc PTB domain alone, calculated. The surface was regenerated using 2 M Guanidinium-HCl.

[1] = target: T2, Shc PTB domain (GST-ShcB) binding to activated EGF-R (Homo sapiens, UniProt P29353); experiment: In vitro binding assay: competitive inhibition of EGF receptor binding to GST-ShcB in HER14 lysates; conditions: FIG. 10 Panel A; for inhibition of association of Shc and EGF-R: dose response, cyclic peptides, 5 μM
T2 construct: made in house
T2 sequence (P29353 156-339 limits assumed): T1 sequence (P29353 156-339 limits assumed)
Protocol: HER14 cells (3T3 cells expressing EGF-R) were starved in 0.5% CS media for 24 hours and stimulated with 100 ng/ml EGF for 5 min. Cells were lysed and mixed with GST, GST-ShcB or GST-R175M beads. Proteins which bound to beads were resolved on SDS-PAGE and detected by anti-phospho-Tyr antibody (4G10) or by anti-EGF-R.
The peptides listed in Table 2 were added to cell lysates at 5 μM, incubated for 30 min., and treated with GST-ShcB beads. Proteins bound to GST-ShcB were detected by anti-phospho-Tyr antibody. […] The experiment was repeated with the peptides dissolved in DMSO (FIG. 9).

cells = experiment: Peptide localization in cells (anti-phospho-Tyr immunofluorescence); type: cell-based
Protocol: To examine peptide localization, cells were treated with P-1 or P-2 peptide for 4 hours, stained with anti-phospho-Tyr and rhodamine-conjugated antibody, and observed with a confocal microscope. A Z-scan was carried out to make images in each 0.15 μm section from the top of the cells to the bottom. […] Cells treated with P-1 peptide were not stained by anti-phospho-Tyr antibody, confirming the specifity of the immunofluoroscence staining. In a time course analysis, cells were serum-starved for 24 hours, and incubated with peptide (5 μM) for various time periods. Cells were stained by anti-phosphoro-Tyr antibody and analyzed under an immunofluoroscence microscope. Cells treated with P-2 peptide retained phospho-peptide for up to 24 hrs. In a dose response experiment, cells were starved in serum-free medium for 24 hours, cultured with peptide at various concentrations, and stained with anti-phospho-tyrosine antibody (4G10) to detect the peptide containing phospho-tyrosine residue (red) and by Hoechst 33258 for nuclei (blue). P-2 peptide was detected at 0.5 μM and 1 μM in cells .

[2] = peptide concentration inhibiting by 50% binding of 1 μM GST-Shc PTB domain to immobilized polyoma middle T antigen phosphopeptide, read-out: IC 50

Compound	IC50 (Shc PTB domain; [2]) [nM]	IC50 (Shc PTB domain) [nM]	further results
C[C@H](NC(=O)[C@H](C)NC(=O)[C@@H](N)Cc1c[nH]cn1)C(=O)N[C@@H](CCC(=O)O)C(=O)N[C@@H](CC(N)=O)C(=O)N1CCC[C@H]1C(=O)N[C@@H](CCC(N)=O)C(=O)N[C@@H](Cc1ccc(OP(=O)(O)O)cc1)C(=O)N[C@@H](Cc1ccccc1)C(=O)N[C@@H](CO)C(=O)N[C@@H](CC(=O)O)C(=O)O [H-A-A-E-N-P-Q-P.Y-F-S-D, H-A-A-E-N-P-Q-p.Y-F-S-D] (H-HAAENPQ[pY]FSD-OH)		475	
NC(=O)CC[C@@H]1NC(=O)[C@@H]2CCCN2C(=O)[C@H](CC(N)=O)NC(=O)CNC(=O)[C@H](Cc2ccc(OP(=O)(O)O)cc2)NC1=O [C-4, Cyclo-(NPQpYG)] (cyclo(GNPQ[pY]))			inhibition of association of Shc and EGF-R [1]: did not inhibit
CC[C@H](C)[C@H](NC(=O)[C@@H](N)Cc1c[nH]cn1)C(=O)N[C@@H](C)C(=O)N[C@@H](CCC(=O)O)C(=O)N[C@@H](CC(N)=O)C(=O)N1CCC[C@H]1C(=O)N[C@@H](CCC(N)=O)C(=O)N[C@@H](Cc1ccc(OP(=O)(O)O)cc1)C(=O)N[C@@H](Cc1ccccc1)C(=O)N[C@@H](CO)C(=O)N[C@@H](CC(=O)O)C(=O)O [H-I-A-E-N-P-Q-P.Y-F-S-D, His-Ile-Ala-Glu-Asn-Pro-Gln-P.Tyr-Phe-Ser-Asp] (H-HIAENPQ[pY]FSD-OH)		250	
CC[C@H](C)[C@H](NC(=O)[C@@H](NC(=O)[C@@H](N)Cc1c[nH]cn1)[C@@H](C)CC)C(=O)N[C@@H](CCC(=O)O)C(=O)N[C@@H](CC(N)=O)C(=O)N1CCC[C@H]1C(=O)N[C@@H](CCC(N)=O)C(=O)N[C@@H](Cc1ccc(OP(=O)(O)O)cc1)C(=O)N[C@@H](Cc1ccccc1)C(=O)N[C@@H](CO)C(=O)N[C@@H](CC(=O)O)C(=O)O [H-I-I-E-N-P-Q-P.Y-F-S-D, His-Ile-Ile-Glu-Asn-Pro-Gln-P.Tyr-Phe-Ser-Asp] (H-HIIENPQ[pY]FSD-OH)		175	
CC[C@H](C)[C@H](NC(=O)[C@H](CCCCN)NC(=O)[C@@H](NC(=O)[C@H](CCC(N)=O)NC(=O)[C@@H](N)CCCNC(=N)N)[C@@H](C)CC)C(=O)N[C@@H](Cc1c[nH]c2ccccc12)C(=O)N[C@@H](Cc1ccccc1)C(=O)N[C@@H](CCC(N)=O)C(=O)N[C@@H](CC(N)=O)C(=O)N[C@@H](CCCNC(=N)N)C(=O)N[C@@H](CCCNC(=N)N)C(=O)N[C@@H](CCSC)C(=O)N[C@@H](CCCCN)C(=O)N[C@@H](Cc1c[nH]c2ccccc12)C(=O)N[C@@H](CCCCN)C(=O)N[C@@H](CCCCN)C(=O)N[C@@H](Cc1c[nH]cn1)C(=O)N[C@H](C(=O)N[C@H](C(=O)N[C@@H](CCC(=O)O)C(=O)N[C@@H](CC(N)=O)C(=O)N1CCC[C@H]1C(=O)N[C@@H](CCC(N)=O)C(=O)N[C@@H](Cc1ccc(OP(=O)(O)O)cc1)C(=O)N[C@@H](Cc1ccccc1)C(=O)N[C@@H](CO)C(=O)N[C@@H](CC(=O)O)C(=O)O)[C@@H](C)CC)[C@@H](C)CC [P-2, RQIKIWFQNRRMKWKK-HIIENPQpYFSD] (H-RQIKIWFQNRRMKWKKHIIENPQ[pY]FSD-OH)			peptide localization in cells (cells; cells treated 4 hours, anti-phospho-Tyr staining, confocal microscope): localized in the cytoplasm of cells, and not in the nucleus; detection of peptide in cells by anti-phospho-tyrosine staining (cells; dose response, 0.5 μM and 1 μM (concentrations up to 1 μM)): detected; retention of phospho-peptide in cells (cells; time course, peptide 5 μM, serum-starved cells): up to 24 hrs
CC[C@H](C)[C@H](N)C(=O)N[C@@H](CCC(=O)O)C(=O)N[C@@H](CC(N)=O)C(=O)N1CCC[C@H]1C(=O)N[C@@H](CCC(N)=O)C(=O)N[C@@H](Cc1ccc(OP(=O)(O)O)cc1)C(=O)N[C@@H](Cc1ccccc1)C(=O)N[C@@H](CO)C(=O)N[C@@H](CC(=O)O)C(=O)O [IENPQpYFSD] (H-IENPQ[pY]FSD-OH)		4000	
CC[C@H](C)[C@@H]1NC(=O)CNC(=O)[C@@H]2CCCN2C(=O)[C@H](CO)NC(=O)[C@H](Cc2ccccc2)NC(=O)[C@H](Cc2ccc(OP(=O)(O)O)cc2)NC(=O)[C@H](CCC(N)=O)NC(=O)[C@@H]2CCCN2C(=O)[C@H](CC(N)=O)NC(=O)[C@H](CCC(=O)O)NC1=O [C-1, Cyclo-(IENPQpYFSPG)] (cyclo(ENPQ[pY]FSPGI))			inhibition at 100 µM ([1]; 100 μM, read-out: inhibition of association of Shc and EGF-R): ~50%
CC[C@H](C)[C@H](NC(=O)[C@H](C)NC(=O)[C@@H](N)Cc1c[nH]cn1)C(=O)N[C@@H](CCC(=O)O)C(=O)N[C@@H](CC(N)=O)C(=O)N1CCC[C@H]1C(=O)N[C@@H](CCC(N)=O)C(=O)N[C@@H](Cc1ccc(OP(=O)(O)O)cc1)C(=O)N[C@@H](Cc1ccccc1)C(=O)N[C@@H](CO)C(=O)N[C@@H](CC(=O)O)C(=O)O [H-A-I-E-N-P-Q-P.Y-F-S-D, His-Ala-Ile-Glu-Asn-Pro-Gln-P.Tyr-Phe-Ser-Asp] (H-HAIENPQ[pY]FSD-OH)		20	
RQIKIWFQNRRMKWKKHIIENPQYFSD [P-1, RQIKIWFQNRRMKWKK-HIIENPQYFSD]			peptide localization in cells (cells): not stained
NC(=O)CC[C@@H]1NC(=O)[C@@H]2CCCN2C(=O)[C@H](CC(N)=O)NC(=O)[C@H](Cc2ccc(OP(=O)(O)O)cc2)NC1=O [C-3, Cyclo-(NPQpY)] (cyclo(NPQ[pY]))			inhibition of association of Shc and EGF-R [1]: did not inhibit
NC(=O)CC[C@@H]1NC(=O)[C@@H]2CCCN2C(=O)[C@H](CC(N)=O)NC(=O)CNC(=O)CNC(=O)[C@H](Cc2ccc(OP(=O)(O)O)cc2)NC1=O [C-5, Cyclo-(NPQpYGG)] (cyclo(GGNPQ[pY]))			inhibition of association of Shc and EGF-R [1]: did not inhibit

More lines, main results first:

IC50 (Shc PTB domain; [2]) [nM]	Compound	IC50 (Shc PTB domain) [nM]	further results
2500	CC[C@H](C)[C@H](NC(=O)[C@@H](NC(=O)[C@@H](N)Cc1c[nH]cn1)[C@@H](C)CC)C(=O)N[C@@H](CCC(=O)O)C(=O)N[C@@H](CC(N)=O)C(=O)N[C@@H](C)C(=O)N[C@@H](CCC(N)=O)C(=O)N[C@@H](Cc1ccc(OP(=O)(O)O)cc1)C(=O)N[C@@H](Cc1ccccc1)C(=O)N[C@@H](CO)C(=O)N[C@@H](CC(=O)O)C(=O)O [H-I-I-E-N-A-Q-P.Y-F-S-D, His-Ile-Ile-Glu-Asn-Ala-Gln-P.Tyr-Phe-Ser-Asp] (H-HIIENAQ[pY]FSD-OH)		
80000	CC[C@H](C)[C@H](NC(=O)[C@@H](NC(=O)[C@@H](N)Cc1c[nH]cn1)[C@@H](C)CC)C(=O)N[C@@H](CCC(=O)O)C(=O)N[C@@H](C)C(=O)N1CCC[C@H]1C(=O)N[C@@H](CCC(N)=O)C(=O)N[C@@H](Cc1ccc(OP(=O)(O)O)cc1)C(=O)N[C@@H](Cc1ccccc1)C(=O)N[C@@H](CO)C(=O)N[C@@H](CC(=O)O)C(=O)O [H-I-I-E-A-P-Q-P.Y-F-S-D, His-Ile-Ile-Glu-Ala-Pro-Gln-P.Tyr-Phe-Ser-Asp] (H-HIIEAPQ[pY]FSD-OH)		
90	CC[C@H](C)[C@H](NC(=O)[C@H](C)NC(=O)[C@@H](N)Cc1ccc(O)cc1)C(=O)N[C@@H](CO)C(=O)N[C@@H](CC(N)=O)C(=O)N1CCC[C@H]1C(=O)N[C@@H](CCC(=O)O)C(=O)N[C@@H](Cc1ccc(OP(=O)(O)O)cc1)C(=O)N[C@@H](CC(C)C)C(=O)N[C@@H](CO)C(=O)N[C@@H](C)C(=O)O [Y-A-I-S-N-P-E-P.Y-L-S-A, Tyr-Ala-Ile-Ser-Asn-Pro-Glu-P.Tyr-Leu-Ser-Ala] (H-YAISNPE[pY]LSA-OH)		
15000	C[C@H](NC(=O)[C@@H](N)Cc1c[nH]cn1)C(=O)N[C@@H](CO)C(=O)N[C@@H](CCC(=O)O)C(=O)N[C@@H](CC(N)=O)C(=O)N1CCC[C@H]1C(=O)N[C@@H](CCC(N)=O)C(=O)N[C@@H](Cc1ccc(OP(=O)(O)O)cc1)C(=O)N[C@@H](Cc1ccccc1)C(=O)N[C@@H](CO)C(=O)N[C@@H](CC(=O)O)C(=O)O [H-A-S-E-N-P-Q-P.Y-F-S-D, H-A-S-E-N-P-Q-p.Y-F-S-D] (H-HASENPQ[pY]FSD-OH)		
7000	CC(C)C[C@H](NC(=O)[C@H](Cc1ccc(OP(=O)(O)O)cc1)NC(=O)[C@H](CCC(=O)O)NC(=O)[C@@H]1CCCN1C(=O)[C@H](CC(N)=O)NC(=O)[C@H](CO)NC(=O)[C@H](CO)NC(=O)[C@H](C)NC(=O)[C@@H](N)Cc1ccc(O)cc1)C(=O)N[C@@H](CO)C(=O)N[C@@H](C)C(=O)O [Y-A-S-S-N-P-E-P.Y-L-S-A, Y-A-S-S-N-P-E-p.Y-L-S-A] (H-YASSNPE[pY]LSA-OH)		
